Data taken from patent US8901115B2, “Cyclic P1 linkers as factor XIa inhibitors” (Bristol-Myers Squibb Company, priority 2011, dated 2014).
pKi: −log10 of the molar value. Counter-ions that a name gives are not always drawn.

test system: not given; experiment: not given; conditions: from C=CC[C@H](NC(=O)OC(C)(C)C)c1cc(-c2ccc(NC(=O)OC)cc2NC(=O)C(C)C=C)ccn1; rcm bond; 12-membered ring; Grubbs II (0.1 eq)/pTsOH; DCM; 4.0 mM; 40.0 °C

Structure (SMILES) | ring closure, isolated yield [%]
COC(=O)Nc1ccc2c(c1)NC(=O)C(C)C=CC[C@H](NC(=O)OC(C)(C)C)c1cc-2ccn1 (single isomer, unassigned; diastereomer a) | 25

same assay, conditions: from C=CC[C@H](NC(=O)OC(C)(C)C)c1cc(-c2ccc(NC(=O)OC)cc2NC(=O)C(C)C=C)cnc1F; rcm bond; 12-membered ring; Grubbs II (0.4 eq), microwave; DCE; 17.3 mM; 120.0 °C

Structure (SMILES) | ring closure, isolated yield [%]
COC(=O)Nc1ccc2c(c1)NC(=O)C(C)/C=C/C[C@H](NC(=O)OC(C)(C)C)c1cc-2cnc1F (stereo partly shown) | 68

same assay, conditions: from C=CC[C@H](NC(=O)OC(C)(C)C)c1nc(-c2ccc(NC(=O)OC)cc2N(C(=O)C(F)(F)F)[C@H](CC=C)C(=O)OC)cn1COCC[Si](C)(C)C; rcm bond; 12-membered ring; Grubbs II (0.03 eq); DCE; 37.7 mM; 85.0 °C; 16.0 h

Structure (SMILES) | ring closure, isolated yield [%]
COC(=O)Nc1ccc2c(c1)N(C(=O)C(F)(F)F)[C@@H](C(=O)OC)CC=CC[C@H](NC(=O)OC(C)(C)C)c1nc-2cn1COCC[Si](C)(C)C | 29

same assay, conditions: from C=CC[C@H](NC(=O)OC(C)(C)C)c1nc(-c2ccc(NC(=O)OC)cc2NC(=O)[C@H](C)C=C)cn1COCC[Si](C)(C)C; rcm bond; 12-membered ring; Grubbs II (0.4 eq)/pTsOH; DCM; 9.7 mM; 40.0 °C

Structure (SMILES) | ring closure, isolated yield [%]
COC(=O)Nc1ccc2c(c1)NC(=O)[C@H](C)/C=C/C[C@H](NC(=O)OC(C)(C)C)c1nc-2cn1COCC[Si](C)(C)C | 41

same assay, conditions: from C=CC[C@H](NC(=O)OC(C)(C)C)c1nc(-c2ccc(NC(=O)OC)cc2N[C@H](CC=C)C(=O)OC)cn1COCC[Si](C)(C)C; rcm bond; 12-membered ring; Grubbs II (0.4 eq), microwave; DCE; 40.0 mM; 120.0 °C

Structure (SMILES) | ring closure, isolated yield [%]
COC(=O)Nc1ccc2c(c1)N[C@@H](C(=O)OC)C/C=C/C[C@H](NC(=O)OC(C)(C)C)c1nc-2cn1COCC[Si](C)(C)C | 23

biological target: purified human Factor XIa (Homo sapiens (Human), UniProt P03951); experiment: Factor XIa enzyme inhibition assay (chromogenic substrate S-2366); type: biochemical; conditions: substrate S-2366, 50 mM HEPES pH 7.4
Sequence (P03951 388-625): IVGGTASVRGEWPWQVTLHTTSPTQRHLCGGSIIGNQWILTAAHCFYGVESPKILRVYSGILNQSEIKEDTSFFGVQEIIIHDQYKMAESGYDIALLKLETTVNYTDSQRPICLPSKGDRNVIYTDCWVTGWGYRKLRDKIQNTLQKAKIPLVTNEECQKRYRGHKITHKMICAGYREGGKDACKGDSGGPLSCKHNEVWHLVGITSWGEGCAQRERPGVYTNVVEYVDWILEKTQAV
Sequence (P03951 19-387 partner): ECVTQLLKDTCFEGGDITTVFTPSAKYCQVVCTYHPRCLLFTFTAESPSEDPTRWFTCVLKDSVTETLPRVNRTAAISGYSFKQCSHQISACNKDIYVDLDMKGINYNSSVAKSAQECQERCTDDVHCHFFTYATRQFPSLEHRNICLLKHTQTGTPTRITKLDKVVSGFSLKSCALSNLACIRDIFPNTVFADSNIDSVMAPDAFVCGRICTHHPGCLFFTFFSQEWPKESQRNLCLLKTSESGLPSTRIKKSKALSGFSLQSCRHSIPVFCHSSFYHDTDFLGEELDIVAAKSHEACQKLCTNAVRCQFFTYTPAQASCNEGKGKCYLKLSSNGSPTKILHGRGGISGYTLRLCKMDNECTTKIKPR
Method: The effectiveness of compounds of the present invention as inhibitors of the coagulation Factors XIa, VIIa, IXa, Xa, XIIa, plasma kallikrein or thrombin, can be determined using a relevant purified serine protease, respectively, and an appropriate synthetic substrate. The rate of hydrolysis of the chromogenic or fluorogenic substrate by the relevant serine protease was measured both in the absence and presence of compounds of the present invention. Assays were conducted at room temperature or at 37° C. […] A decrease in the rate of absorbance or fluorescence change in the presence of inhibitor is indicative of enzyme inhibition. Such methods are known to one skilled in the art. The results of this assay are expressed as the inhibitory constant, Ki.
Values of Ki were determined by allowing the protease to react with the substrate in the presence of the inhibitor. Reactions were allowed to go for periods of 20-180 minutes (depending on the protease) and the velocities (rate of absorbance or fluorescence change versus time) were measured. The following relationships were used to calculate Ki values: (vo−vs)/vs=I/(Ki(1+S/Km)) for a competitive inhibitor with one binding site; or vs/vo=A+((B−A)/(1+((IC50/(I))^n))); and Ki=IC50/(1+S/Km) for a competitive inhibitor where: […]

Structure (SMILES) | pKi
COC(=O)Nc1ccc2c(c1)N[C@@H](C(=O)OC)CCCC[C@H](N1CCC(c3cc(Cl)ccc3OC(F)F)OC1=O)c1nc-2c(C#N)[nH]1 (single isomer, unassigned) [Example 7] | 7.38
COC(=O)Nc1ccc2c(c1)N[C@@H](C(=O)OC)CCCC[C@H](N1CCC(c3cccc(Cl)c3)OC1=O)c1nc-2c(C#N)[nH]1 (single isomer, unassigned) [Example 79] | 7.87
COC(=O)Nc1ccc2c(c1)NC(=O)CCCC[C@H](N1CCC(c3cccc(Cl)c3)CC1=O)c1nc-2c[nH]1 (single isomer, unassigned) [Example 147] | 8.02
COC(=O)Nc1ccc2c(c1)N[C@@H](C(=O)OC)CCCC[C@H](N1CCC(c3cccc(Cl)c3)OC1=O)c1nc-2c[nH]1 (stereo partly drawn) [Example 5, Methyl (9R,14S)-14-(6-(3-chlorophenyl)-2-oxo-1,3-oxazinan-3-yl)-5-((methoxycarbonyl)amino)-8,16,18-triazatricyclo[13.2.1.0^2,7]octadeca-1(17),2,4,6,15(18)-pentaene-9-carboxylate] | 7.91
COC(=O)Nc1ccc2c(c1)NC(=O)[C@H](C)CCC[C@H](N1CC[C@@H](c3c(F)ccc(Cl)c3F)OC1=O)c1cc-2ccn1 [Example 100] | > 8.30

Other lines, results leading:

pKi | Structure (SMILES)
> 8.30 | COC(=O)Nc1ccc2c(c1)NC(=O)[C@H](C)CCCC(N1CC(=O)N(c3c(C(F)(F)F)ccc(Cl)c3F)CC1=O)c1cc-2ccn1 (single isomer, unassigned) [Example 37, TFA salt]
7.61 | COC(=O)Nc1ccc2c(c1)NC(=O)CC/C=C/C[C@H](N1CCC(c3cc(Cl)ccn3)NC1=O)c1nc-2c[nH]1 (single isomer, unassigned) [Example 40]
> 8.30 | COC(=O)Nc1ccc2c(c1)NC(=O)[C@H](C)CCC[C@H](N1CCC(c3nccc(Cl)c3F)NC1=O)c1nc-2c[nH]1 (single isomer, unassigned) [Example 58]
5.72 | COC(=O)Nc1ccc2c(c1)NC(=O)CC/C=C/C[C@H](N1CCC(C)(c3c(F)ccc(Cl)c3F)OC1=O)c1nc-2c(Cl)[nH]1 (single isomer, unassigned) [Example 99]
7.16 | COC(=O)Nc1ccc2c(c1)NC(=O)[C@H](C)CCC[C@H](N1CCC(c3c(C(F)(F)F)ccc(Cl)c3F)OC1=O)c1cc-2ccn1 (single isomer, unassigned) [Example 133]
> 8.30 | COC(=O)Nc1ccc2c(c1)NC(=O)[C@H](C)CCC[C@H](N1CCC(c3cccc(Cl)c3)CC1=O)c1cc-2ccn1 (single isomer, unassigned) [Example 152]
5.47 | COC(=O)Nc1ccc2c(c1)NC(=O)CCCC[C@H](N1CCC(c3cccc(Cl)c3)OC1=O)c1nc-2c[nH]1 (stereo partly drawn) [Example 4, Methyl ((14S)-14-(6-(3-chlorophenyl)-2-oxo-1,3-oxazinan-3-yl)-9-oxo-8,16,18-triazatricyclo[13.2.1.0^2,7]octadeca-1(17),2,4,6,15(18)-pentaen-5-yl)carbamate]
> 8.30 | COC(=O)Nc1ccc2c(c1)NC(=O)C(C)CCC[C@H](N1CC[C@H](c3c(F)ccc(Cl)c3F)OC1=O)c1cc-2cnn1 (stereo partly drawn) [Example 13, Methyl N-[(14S)-14-[(6R)-6-(3-chloro-2,6-difluorophenyl)-2-oxo-1,3-oxazinan-3-yl]-10-methyl-9-oxo-8,16,17-triazatricyclo[13.3.1.0^2,7]nonadeca-1(19),2(7),3,5,15,17-hexaen-5-yl]carbamate]
8.17 | COC(=O)Nc1ccc2c(c1)NC(=O)[C@H](C)CCC[C@H](N1CCC(c3c(Cl)ccc(Cl)c3F)NC1=O)c1nc-2c[nH]1 (stereo partly drawn) [Example 18, Methyl N-[(10R,14S)-14-[4-(3,6-dichloro-2-fluorophenyl)-2-oxo-1,3-diazinan-1-yl]-10-methyl-9-oxo-8,16,18-triazatricyclo[13.2.1.0^2,7]octadeca-1(17),2,4,6,15(18)-pentaen-5-yl]carbamate]
8.13 | COC(=O)Nc1ccc2c(c1)NC(=O)[C@H](C)CCC[C@H](N1CCN(c3cccc(Cl)c3F)CC1=O)c1cc-2ccn1 [Example 20, Methyl N-[(10R,14S)-14-[4-(3-chloro-2-fluorophenyl)-2-oxopiperazin-1-yl]-10-methyl-9-oxo-8,16-diazatricyclo[13.3.1.0^2,7]nonadeca-1(19),2(7),3,5,15,17-hexaen-5-yl]carbamate]
> 8.30 | C[C@@H]1CCC[C@H](N2CC[C@H](c3c(F)ccc(Cl)c3F)OC2=O)c2cc(ccn2)-c2cc(C(=O)O)ccc2NC1=O [Example 26, (10R,14S)-14-[(6R)-6-(3-chloro-2,6-difluorophenyl)-2-oxo-1,3-oxazinan-3-yl]-10-methyl-9-oxo-8,16-diazatricyclo[13.3.1.0^2,7]nonadeca-1(19),2,4,6,15,17-hexaene-4-carboxylic acid, TFA salt]
> 8.30 | COC(=O)Nc1ccc2c(c1)NC(=O)[C@H](C)CCC[C@H](N1CC[C@@H](c3c(F)ccc(Cl)c3F)NC1=O)c1nc-2c[nH]1 [Example 70]
6.48 | COC(=O)Nc1ccc2c(c1)NC(=O)[C@H](C)CCC[C@H](N1CC[C@@H](c3nccc(Cl)c3F)N(C)C1=O)c1nc-2c[nH]1 [Example 71]
7.54 | COC(=O)Nc1ccc2c(c1)NC(=O)[C@H](C)CCC[C@H](N1CC[C@H](c3nccc(Cl)c3F)N(C)C1=O)c1nc-2c[nH]1 [Example 72]
8.13 | COC(=O)Nc1ccc2c(c1)NC(=O)CC/C=C/C[C@H](N1CC[C@H](c3cc(Cl)ccc3OC(F)F)OC1=O)c1nc-2c[nH]1 [Example 77]
8.02 | COC(=O)Nc1ccc2c(c1)NC(=O)[C@@H](C)CCC[C@H](N1CC[C@@H](c3c(F)ccc(Cl)c3F)OC1=O)c1ccnc-2c1 [Example 119]

same assay, conditions: substrate S-2366, 50 mM HEPES pH 7.4, TFA salt

pKi | Structure (SMILES)
5.61 | COC(=O)Nc1ccc2c(c1)NC(=O)CC/C=C/C[C@H](N1CCC(C)(c3c(F)ccc(Cl)c3F)OC1=O)c1nc-2c(Cl)[nH]1 (stereo partly drawn) [Example 32, Methyl N-[(12E,15S)-18-chloro-15-[6-(3-chloro-2,6-difluorophenyl)-6-methyl-2-oxo-1,3-oxazinan-3-yl]-9-oxo-8,17,19-triazatricyclo[14.2.1.0^2,7]nonadeca-1(18),2,4,6,12,16(19)-hexaen-5-yl]carbamate, TFA salt]

test system: not given; experiment: not given; conditions: from C=CCCC(=O)Nc1cc(NC(=O)OC)ccc1-c1cn(COCC[Si](C)(C)C)c([C@H](CC=C)NC(=O)OC(C)(C)C)n1; rcm bond; 13-membered ring; 1.5 h

Structure (SMILES) | ring closure, yield after HPLC [%]
COC(=O)Nc1ccc2c(c1)NC(=O)CC/C=C/C[C@H](NC(=O)OC(C)(C)C)c1nc-2cn1COCC[Si](C)(C)C | 42
